Measured values as given in US20040220260A1, “Use of mono-or di-esters of cinnamic acid or of one of its derivatives and vitamin C, as donor of NO” (L'OREAL S.A., priority 2003, published 2004).

Key:
[1] = molecular target: T1, inducible NO synthase (NOS2) (Homo sapiens, UniProt P35228); assay: screening test of the modulation of induction of NOS2 by normal human keratinocytes (nitrite/nitrate measurement); assay type: cell-based; details: for % inhibition: normal human keratinocytes, NOS2 induced by cytokines, nitrites and nitrates measured
T1 construct: endogenous in cells; host or cells: normal human keratinocytes (primary culture), induced with interferon-γ and interleukin 1-β
T1 sequence (P35228 whole entry): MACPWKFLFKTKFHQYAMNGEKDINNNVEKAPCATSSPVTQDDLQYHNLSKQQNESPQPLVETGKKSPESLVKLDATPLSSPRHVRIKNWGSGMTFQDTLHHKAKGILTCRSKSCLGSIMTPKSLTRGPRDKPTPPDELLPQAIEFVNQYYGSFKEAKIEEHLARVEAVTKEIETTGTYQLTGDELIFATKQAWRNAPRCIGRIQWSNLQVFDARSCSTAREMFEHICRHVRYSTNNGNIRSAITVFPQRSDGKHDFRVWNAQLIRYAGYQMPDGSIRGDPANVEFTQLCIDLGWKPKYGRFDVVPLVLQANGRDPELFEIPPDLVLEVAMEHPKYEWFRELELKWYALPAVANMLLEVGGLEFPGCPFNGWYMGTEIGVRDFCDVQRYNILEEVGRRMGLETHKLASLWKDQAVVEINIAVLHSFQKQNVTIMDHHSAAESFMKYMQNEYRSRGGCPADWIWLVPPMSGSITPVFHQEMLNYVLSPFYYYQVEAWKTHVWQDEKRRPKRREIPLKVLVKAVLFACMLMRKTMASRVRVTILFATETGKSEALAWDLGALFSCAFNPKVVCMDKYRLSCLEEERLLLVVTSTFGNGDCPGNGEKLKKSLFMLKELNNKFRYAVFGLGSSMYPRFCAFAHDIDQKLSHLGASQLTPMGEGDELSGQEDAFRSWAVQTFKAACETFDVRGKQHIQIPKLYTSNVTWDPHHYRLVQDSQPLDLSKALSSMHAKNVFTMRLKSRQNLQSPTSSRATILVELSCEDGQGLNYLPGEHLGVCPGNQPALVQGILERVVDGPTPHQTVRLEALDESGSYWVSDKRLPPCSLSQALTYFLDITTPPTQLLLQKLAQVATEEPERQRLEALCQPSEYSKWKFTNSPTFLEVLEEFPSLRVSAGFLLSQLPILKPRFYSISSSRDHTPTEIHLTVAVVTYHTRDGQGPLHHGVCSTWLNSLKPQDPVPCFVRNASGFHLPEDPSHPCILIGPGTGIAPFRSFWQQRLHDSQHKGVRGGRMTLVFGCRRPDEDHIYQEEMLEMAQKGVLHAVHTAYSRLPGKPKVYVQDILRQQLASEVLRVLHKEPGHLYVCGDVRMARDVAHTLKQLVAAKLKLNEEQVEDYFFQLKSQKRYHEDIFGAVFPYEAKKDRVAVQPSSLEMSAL
Description: The activity of ascorbyl 2-O-cinnamate on the inducible NO synthase was evaluated in the assay described by Heck et al. (J.B.C., vol. 267, No. 30, 21277-21280, 25 Oct. 1992), a screening test of the modulation of induction of NOS2 by normal human keratinocytes. The objective of this test is, briefly, to evaluate the concentration of nitrate and nitrite after stimulation of the NO-synthase 2.
The test is carried out on a culture of normal human keratinocytes, derived from samples taken. The induction of the inducible NO synthase (NOS2) was caused by the addition of a combination of several cytokines to the culture medium. The product tested was applied at three concentrations varying from […] to 1000 μM.
The product tested was classed in one of the following two categories: inhibitor (I) or donor (D) of NO (nitric oxide) according to its capacity to diminish or increase, respectively, the quantity of nitrites and nitrates produced compared to the control signal […].
The following controls were introduced in the test:
A: positive control (induction of the enzyme): mixtures of interferon-γ (1000 u/ml) and interleukin 1-β (100 u/ml)
In order to determine the activity of the test product the quantity of stable NO reaction products (nitrites and nitrates) is measured with the aid of the “nitric calorimetric assay” kit sold by the Boehringer company under catalogue number 1756.28.
Ascorbyl 2-O-cinnamate was tested at concentrations of 100 μM, 500 μM and 1000 μM in ethanol

[2] = tested on: normal human keratinocytes; assay: cytotoxicity (% diminution of the signal compared with the control); assay type: cell-based; details: % diminution of signal vs control; not very cytotoxic 0-20%, acceptable up to 40%, not retained >40%
Source text: Moreover, the cytotoxicity was expressed as % diminution of the signal compared with the control. A product was considered to be not very cytotoxic from 0-20%, acceptable up to 40% and not retained for values >40%.

O=C(/C=C/c1ccccc1)OC1=C(O)[C@@H]([C@@H](O)CO)OC1=O [Ascorbyl 2-O-cinnamate, ascorbyl 2-O-cinnamate]
% inhibition ([1]; 100 μM in ethanol): 24.79%
% inhibition ([1]; 500 μM in ethanol): 53.74%
% inhibition ([1]; 1000 μM in ethanol): 74.4%
classification as inhibitor (I) or donor (D) of NO ([1]; according to capacity to diminish or increase the quantity of nitrites and nitrates produced compared to the control signal): NO donor effect
cytotoxicity [2]: not toxic
